# According to paper PMC12645191, “Dicarboxylate and dicarboxylic acid appended supramolecular self-associating amphiphiles as antimicrobial agents against high priority bacterial pathogens” (Organic & Biomolecular Chemistry, 2025):
# Several values for one entry are separate records, joined by “and”; a condition that tells them apart may be missing. Equal values may be shown once. Marks after values point to notes of the source that are not given here.
# How the values were obtained:
# [1] = quantitative (Q) 1H NMR spectroscopy, proportion of SSA becoming NMR silent (higher-order aggregates); format: physicochemical; details: for (Q) 1H NMR spectroscopy, proportion NMR silent, acid or anion / (Q) 1H NMR spectroscopy, proportion NMR silent, cation: 5.6 mM, D2O 5.0% EtOH, 298 K; for (Q) 1H NMR, proportion NMR silent, SSA acid or anion / (Q) 1H NMR, proportion NMR silent, cation: ~112 mM, DMSO-d6 1.0% DCM
# Protocol: To confirm the presence of higher order self-associative structures quantitative (Q) ^1H NMR spectroscopy studies were undertaken at 5.6 mM in D2O 5% EtOH. Here the ^1H NMR resonances attributed to the EtOH are used as an internal standard.
# Table S1 – Overview of results of the quantitative (Q) 1H NMR studies for 1, 3, 5, 7 and 9
# 5.0 % EtOH . Values given in % represent the observed proportion of the SSA that has become
# Table S2 – Overview of results of the quantitative (Q) 1H NMR studies for 2, 4, 6, 8 and 10
# 5.0 % EtOH. Values given in % represent the observed proportion of anion and cation that has
# [2] = tensiometry: critical aggregate concentration (CAC) and surface tension; format: physicochemical; details: for Surface tension at CAC: H2O/5.0 % EtOH
# Protocol: As the (Q) ^1H NMR spectroscopy experiments conducted at 5.6 mM in a D2O 5.0% EtOH solution confirmed the presence of higher-order self-associated structures with solid-like properties, concentration dependent surface tension measurements, obtained through tensiometry, were used to calculate critical aggregate concentration (CAC). Here the CAC is defined as the point at which an increase in SSA concentration no longer decreases surface tension but instead results in the formation of higher-order self-associated structures.
# [3] = dynamic light scattering (DLS) of SSA aggregates; format: physicochemical; details: 5.6 mM, H2O 5.0% EtOH, 298 K
# Protocol: Dynamic light scattering (DLS) and zeta potential measurements in H2O 5.0% EtOH were used to determine the hydrodynamic diameter (dH) and stability of the higher-order SSA aggregates detected by (Q) ^1H NMR spectroscopy at 5.6 mM, Table 1. […] However, we are unable to confidently report a dH for 1 due to the instability of this system, which is supported by a zeta potential value of −26 mV, obtained for this SSA under the same experimental conditions. […] Due to the instability of these systems in the absence of solvent, attempts to further characterise these systems through SEM or AFM are not possible.[48]
# [4] = tested on: P. aeruginosa PAO1; assay: inhibition of bacterial growth, OD600 after 20 h; format: cell-based, Pseudomonas aeruginosa; details: SSA 5.0 mM, 2.5% ethanol, negative = enhanced growth
# Protocol: (§1) With the self-associative properties of 1–10 established, the antimicrobial activity of these SSAs were determined against a panel of clinically relevant, high-priority pathogens including: P. aeruginosa PAO1; Klebsiella pneumonia (K. pneumoniae) M6; E. coli NCTC 12923; Acinetobacter baumannii (A. baumannii) ATCC 17978; S. aureus ATCC 9144; Enterococcus faecalis (E. faecalis) NCTC 775; and Enterococcus faecium (E. faecium) NCTC 12204. […] However, it should be noted that the SSA stock solution was prepared in a H2O 5% EtOH solution, to ensure that the SSA aggregates formed were in line with those characterised within the scope of the SSA self-association studies.
# (§2) Section 3: Biological methods
# (§3) These methods were taken directly from UK Health and Security Office (UKHSA) standard […]
# (§4) Preparation of Luria Broth media (LB): Yeast extract (5.0 g), tryptone (10.0 g) and sodium chloride (10.0 g) were dissolved in dH₂O (1.0 L) then divided into bottles and autoclaved.
# (§5) Preparation of Luria Broth (LB) agar plates: Agar (6.0 g) was added to LB (400 mL) and autoclaved. Once cool, the LB agar was poured into sterile petri dishes under sterile conditions and allowed to set. LB plates were stored at 4 °C until use.
# (§6) Preparation of bacterial plates: Sterile LB agar plates were streaked using streaked using the desired bacteria i) Pseudomonas aeruginosa (P.aeruginosa) PAO1, ii) Klebsiella pneumoniae (K. pneumoniae) M6 iii) E. coli NCTC 12923 and iv) Acinetobacter baumannii (A. baumannii) ATCC 17978 and Gram-positive i) Staphylococcus aureus (S. aureus) ATCC 9144 ii) Enterococcus faecalis (E. faecalis) NCTC 775 and iii) Enterococcus faecium (E. faecium ) NCTC 12204, then incubated at 37 °C overnight.
# (§7) Preparation of Inoculum: An initial culture was made up by inoculating LB media (5 mL) with a single colony of bacteria under sterile conditions and incubated at 37 °C with shaking overnight. The following day, overnight bacterial cultures were subcultured into fresh LB medium to a starting OD600 of 0.01.
# (§8) Preparation of 96 well microplate for MIC50: The 1:100 cell suspension (150 µL) was dispensed into individual wells under sterile conditions. SSAs (30 µL) were added to the wells to equal a total volume of 180 µL in the wells. Six repeats of each concentration for each SSA were created each plate. The plates were sealed using parafilm, then incubated at 37 °C in a microplate reader for 20 hours. OD600 endpoint data was used to generate growth curves. […]
# [5] = tested on: K. pneumoniae M6; assay: inhibition of bacterial growth, OD600 after 20 h; format: cell-based, Klebsiella pneumoniae; details: SSA 5.0 mM, 2.5% ethanol, negative = enhanced growth; for inhibition at 5000 µM: Klebsiella pneumoniae, M6, 20 h, read-out: Percentage inhibition of bacterial growth, M6 (K. pneumoniae)
# Protocol: as §1, §2, §3, §4, §5, §6, §7, §8
# [6] = tested on: E. coli NCTC 12923; assay: inhibition of bacterial growth, OD600 after 20 h; format: cell-based, Escherichia coli; details: SSA 5.0 mM, 2.5% ethanol, negative = enhanced growth
# Protocol: as §1, §2, §3, §4, §5, §6, §7, §8
# [7] = tested on: A. baumannii ATCC 17978; assay: inhibition of bacterial growth, OD600 after 20 h; format: cell-based, Acinetobacter baumannii; details: SSA 5.0 mM, 2.5% ethanol, negative = enhanced growth
# Protocol: as §1, §2, §3, §4, §5, §6, §7, §8
# [8] = tested on: S. aureus ATCC 9144; assay: inhibition of bacterial growth, OD600 after 20 h; format: cell-based, Staphylococcus aureus; details: SSA 5.0 mM, 2.5% ethanol, negative = enhanced growth
# Protocol: as §1, §2, §3, §4, §5, §6, §7, §8
# [9] = tested on: E. faecalis NCTC 775; assay: inhibition of bacterial growth, OD600 after 20 h; format: cell-based, Enterococcus faecalis; details: SSA 5.0 mM, 2.5% ethanol, negative = enhanced growth; for inhibition at 5000 µM: Enterococcus faecalis, NCTC775, 20 h, read-out: Percentage inhibition of bacterial growth, NCTC 775 (E. faecalis)
# Protocol: as §1, §2, §3, §4, §5, §6, §7, §8
# [10] = tested on: E. faecium NCTC 12204; assay: inhibition of bacterial growth, OD600 after 20 h; format: cell-based, Enterococcus faecium; details: SSA 5.0 mM, 2.5% ethanol, negative = enhanced growth; for inhibition at 5000 µM: Enterococcus faecium, NCTC12204, 20 h, read-out: Percentage inhibition of bacterial growth, NCTC 12204 (E. faecium)
# Protocol: as §1, §2, §3, §4, §5, §6, §7, §8
smiles,measurement,setting,value
COc1ccc(NC(=O)N[C@@H](CCC(=O)O)C(=O)O)cc1 [SSA 5],"(Q) 1H NMR spectroscopy, proportion NMR silent, acid or anion",[1]; listed as 5,56%
same,"(Q) 1H NMR, proportion NMR silent, SSA acid or anion",[1],0%
same,ST at CAC,"[2]; H2O 5.0% EtOH, 298 K",58 mN m^−1
same,CAC (footnote in place of a value),"[2]; H2O 5.0% EtOH, 298 K, listed as 5",^b (CAC above the limit of solubility)
same,Surface tension at CAC,[2]; listed as 5,58.22 mN/m
same,DLS Peak 2 maxima,[3]; listed as 5,1328 nm
same,Polydispersity index (%),[3]; listed as 5,22.7 (± 1.5) %
same,dH (DLS intensity distribution peak 1 maxima),[3]; listed as 5,153 nm
same,"Percentage inhibition of bacterial growth, PAO1 (P. aeruginosa)",[4]; listed as 5,0%
same,inhibition at 5000 µM,[5],12.8%
same,"Percentage inhibition of bacterial growth, M6 (K. pneumoniae)",[5]; listed as 5,13%
same,"Percentage inhibition of bacterial growth, NCTC 12923 (E. coli)",[6]; listed as 5,70.96% and 71%
same,"Percentage inhibition of bacterial growth, ATCC 17978 (A. baumannii)",[7]; listed as 5,18.61% and 19%
same,"Percentage inhibition of bacterial growth, ATCC 9144 (S. aureus)",[8]; listed as 5,12.67% and 13%
same,inhibition at 5000 µM,[9],13%
same,"Percentage inhibition of bacterial growth, NCTC 775 (E. faecalis)",[9]; listed as 5,13%
same,inhibition at 5000 µM,[10],5.8%
same,"Percentage inhibition of bacterial growth, NCTC 12204 (E. faecium)",[10]; listed as 5,6%
COc1ccc(NC(=O)N[C@@H](CCC(=O)O)C(=O)O)cc1 [SSA 6],"(Q) 1H NMR spectroscopy, proportion NMR silent, acid or anion",[1]; listed as 6,42%
same,"(Q) 1H NMR spectroscopy, proportion NMR silent, cation",[1]; listed as 6,41.8% and 42%
same,"(Q) 1H NMR, proportion NMR silent, cation",[1],0%
same,"ST at the limit of solubility or 100 mM, whichever concentration is lower","[2]; H2O 5.0% EtOH, 298 K",38 ^d mN m^−1
same,CAC (footnote in place of a value),"[2]; H2O 5.0% EtOH, 298 K, listed as 6",^c (CAC is >100 mM)
same,Surface tension at CAC,[2]; listed as 6,38.24 mN/m
same,DLS Peak 2 maxima,[3]; listed as 6,5868 nm
same,Polydispersity index (%),[3]; listed as 6,21.5 (± 1.3) %
same,dH (DLS intensity distribution peak 1 maxima),[3]; listed as 6,164 nm
same,"Percentage inhibition of bacterial growth, PAO1 (P. aeruginosa)",[4]; listed as 6,29.42% and 29%
same,"Percentage inhibition of bacterial growth, M6 (K. pneumoniae)",[5]; listed as 6,22.92% and 23%
same,"Percentage inhibition of bacterial growth, NCTC 12923 (E. coli)",[6]; listed as 6,32.77% and 33%
same,"Percentage inhibition of bacterial growth, ATCC 17978 (A. baumannii)",[7]; listed as 6,-28.50% and −29%
same,"Percentage inhibition of bacterial growth, ATCC 9144 (S. aureus)",[8]; listed as 6,55.64% and 56%
same,"Percentage inhibition of bacterial growth, NCTC 775 (E. faecalis)",[9]; listed as 6,7.71% and 8%
same,"Percentage inhibition of bacterial growth, NCTC 12204 (E. faecium)",[10]; listed as 6,7.44% and 7%
COc1ccc(NC(=O)N[C@@H](CC(=O)O)C(=O)O)cc1 [SSA 7],"(Q) 1H NMR, proportion NMR silent, SSA acid or anion",[1],0%
same,CAC (footnote in place of a value),"[2]; H2O 5.0% EtOH, 298 K",^b (CAC above the limit of solubility)
same,ST at CAC,"[2]; H2O 5.0% EtOH, 298 K, listed as 7",55 mN m^−1
same,Surface tension at CAC,[2]; listed as 7,54.72 mN/m
same,DLS Peak 2 maxima,[3]; listed as 7,5177 nm
same,Polydispersity index (%),[3]; listed as 7,19.6 (± 1.7) %
same,dH (DLS intensity distribution peak 1 maxima),[3]; listed as 7,214 nm
same,"Percentage inhibition of bacterial growth, PAO1 (P. aeruginosa)",[4]; listed as 7,-24.25% and −24%
same,"Percentage inhibition of bacterial growth, M6 (K. pneumoniae)",[5]; listed as 7,32.42% and 32%
same,"Percentage inhibition of bacterial growth, NCTC 12923 (E. coli)",[6]; listed as 7,64.22% and 64%
same,"Percentage inhibition of bacterial growth, ATCC 17978 (A. baumannii)",[7]; listed as 7,24.84% and 25%
same,"Percentage inhibition of bacterial growth, ATCC 9144 (S. aureus)",[8]; listed as 7,5.65% and 6%
same,inhibition at 5000 µM,[9],47.2%
same,"Percentage inhibition of bacterial growth, NCTC 775 (E. faecalis)",[9]; listed as 7,47%
same,"Percentage inhibition of bacterial growth, NCTC 12204 (E. faecium)",[10]; listed as 7,50.11% and 50%
O=C(O)CC[C@H](NC(=O)Nc1ccc(Br)cc1)C(=O)O [SSA 10],"(Q) 1H NMR spectroscopy, proportion NMR silent, acid or anion",[1]; listed as 10,38%
same,"(Q) 1H NMR spectroscopy, proportion NMR silent, cation",[1]; listed as 10,43.6% and 44%
same,"(Q) 1H NMR, proportion NMR silent, SSA acid or anion",[1],0%
same,"(Q) 1H NMR, proportion NMR silent, cation",[1],0%
same,CAC,"[2]; H2O 5.0% EtOH, 298 K",26.00 mM and 26 mM
same,ST at CAC,"[2]; H2O 5.0% EtOH, 298 K",41 mN m^−1
same,Surface tension at CAC,[2]; listed as 10,41.37 mN/m
same,Polydispersity index (%),[3]; listed as 10,26.0 (± 0.5) %
same,dH (DLS intensity distribution peak 1 maxima),[3]; listed as 10,307 nm
same,inhibition at 5000 µM,[5],32%
same,"Percentage inhibition of bacterial growth, M6 (K. pneumoniae)",[5]; listed as 10,32%
same,inhibition at 5000 µM,"[6]; Escherichia coli, NCTC12923, 20 h, read-out: Percentage inhibition of bacterial growth, NCTC 12923 (E. coli)",67.9%
same,"Percentage inhibition of bacterial growth, NCTC 12923 (E. coli)",[6]; listed as 10,68%
same,"Percentage inhibition of bacterial growth, ATCC 17978 (A. baumannii)",[7]; listed as 10,49.97% and 50%
same,"Percentage inhibition of bacterial growth, ATCC 9144 (S. aureus)",[8]; listed as 10,17.46% and 17%
same,inhibition at 5000 µM,[9],23.1%
same,"Percentage inhibition of bacterial growth, NCTC 775 (E. faecalis)",[9]; listed as 10,23%
same,inhibition at 5000 µM,[10],34.1%
same,"Percentage inhibition of bacterial growth, NCTC 12204 (E. faecium)",[10]; listed as 10,34%
